According to patent US10208056B2, “Condensed tricyclic compounds as protein kinase inhibitors” (FUNDACIÓN DEL SECTOR PÚBLICO ESTATAL CENTRO NACIONAL DE …, priority 2015, dated 2019):

What was measured:
CDK8/Cyclin C = CDK8/Cyclin C (Homo sapiens (Human), UniProt P49336); experiment: CDK8/Cyclin C binding assay (LanthaScreen Eu-Kinase Binding Assay); conditions: for IC50: binding assay
Description: The enzyme has been purchase from Invitrogen (PV4402) as a dimer of full-length His-tagged recombinant human proteins.
(§1) Assays were performed in 384-well plates. The final read out was generated using an EnVision plate reader (Perkin-Elmer).

Haspin kinase = Haspin kinase (Homo sapiens (Human), UniProt Q8TF76); experiment: Haspin kinase assay (ADP-Glo); format: biochemical; conditions: ATP 150 μM
Excerpt: The kinase assay relies on ADP-Glo^KM biochemical kinase assay (Promega). This is a luminescent kinase assay that measures ADP formed from a kinase reaction. Then ADP is converted into ATP, which is transformed into a light signal by Ultra-Glo™ Luciferase. The luminescent signal positively correlates with kinase activity. The assay measures the intrinsic ATPase activity (in the absence of peptidic substrate as phosphate acceptor).
The enzyme was purchase from Invitrogen (PV5708) as the kinase domain of GST tagged recombinant human proteins.
Assay conditions were as indicated by the kit manufacturers with the following adaptations: • Assay buffer: 15 mM HEPES pH 7.4, 20 mM NaCl, 1 mM EGTA, 0.02% Tween 20, 10 mM MgCl2, 0.1 mg/ml BGG • Assay volume: 20 μl • Incubation time and temperature: 60 min at 30° C. • Haspin concentration: 20 nM • ATP concentration: 150 μM • Tested compound: Serial 1:3 dilutions • Final DMSO concentration in the assay: 1%
Assays were performed in 384-well plates. The final read out was generated using an EnVision plate reader (Perkin-Elmer). Luminescent relative units are normalized against the control activity included for each compound (i.e., 100% Haspin activity, without compound) and the percentage of inhibition is calculated.

CDK19/Cyclin C = CDK19/Cyclin C (Homo sapiens (Human), UniProt Q9BWU1); experiment: CDK19/Cyclin C binding assay (LanthaScreen Eu-Kinase Binding Assay); conditions: read-out: CDK19-CYCC IC50
Description: The binding assay relies on the LanthaScreen™ Eu-Kinase Binding Assay (Invitrogen).
Assay conditions were as indicated by the kit manufacturers with the following adaptations: • Assay buffer: 50 mM HEPES, pH 7.5, 1 mM EGTA, 0.01% Brij-35, 10 mM MgCl2 • Assay volume: 20 μl • Incubation time and temperature: 60 min at 25° C. • Cdk19-Cyclin C concentration: 2 nM • Tracer concentration: 20 nM • (Eu)-labelled anti-GST antibody concentration: 2 nM • Tested compound: Serial 1:3 dilutions • Final DMSO concentration in the assay: 1%
as §1

Sequence of CDK8/Cyclin C (P49336 whole entry): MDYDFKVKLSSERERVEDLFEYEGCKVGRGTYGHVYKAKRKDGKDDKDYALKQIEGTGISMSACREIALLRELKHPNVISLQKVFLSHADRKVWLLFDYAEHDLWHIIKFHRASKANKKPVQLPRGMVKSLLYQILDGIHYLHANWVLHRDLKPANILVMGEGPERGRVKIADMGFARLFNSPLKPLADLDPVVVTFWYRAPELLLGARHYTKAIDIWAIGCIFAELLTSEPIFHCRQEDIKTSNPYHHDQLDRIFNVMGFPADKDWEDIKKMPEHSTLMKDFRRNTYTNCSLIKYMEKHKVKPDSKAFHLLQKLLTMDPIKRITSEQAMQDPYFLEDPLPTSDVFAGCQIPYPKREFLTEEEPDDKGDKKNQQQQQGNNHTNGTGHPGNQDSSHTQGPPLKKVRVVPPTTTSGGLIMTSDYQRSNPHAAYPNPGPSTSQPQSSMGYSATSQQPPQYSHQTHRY
Sequence of CDK8/Cyclin C (P24863 whole entry partner): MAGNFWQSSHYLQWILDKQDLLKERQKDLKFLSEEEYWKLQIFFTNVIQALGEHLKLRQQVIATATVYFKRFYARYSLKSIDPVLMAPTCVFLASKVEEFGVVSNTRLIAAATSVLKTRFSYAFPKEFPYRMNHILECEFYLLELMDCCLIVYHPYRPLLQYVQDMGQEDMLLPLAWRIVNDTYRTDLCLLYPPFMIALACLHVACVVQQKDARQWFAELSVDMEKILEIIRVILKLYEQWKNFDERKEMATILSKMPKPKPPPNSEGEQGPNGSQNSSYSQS
Sequence of Haspin kinase (Q8TF76 484-798): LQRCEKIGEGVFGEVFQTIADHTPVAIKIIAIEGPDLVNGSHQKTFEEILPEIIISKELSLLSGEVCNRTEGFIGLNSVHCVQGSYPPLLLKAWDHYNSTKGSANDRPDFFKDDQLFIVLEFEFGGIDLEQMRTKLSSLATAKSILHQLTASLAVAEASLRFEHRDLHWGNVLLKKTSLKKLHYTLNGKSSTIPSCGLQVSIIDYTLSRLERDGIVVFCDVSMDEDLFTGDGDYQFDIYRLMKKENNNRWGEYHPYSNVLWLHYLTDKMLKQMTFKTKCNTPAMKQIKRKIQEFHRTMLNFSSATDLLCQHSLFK
Sequence of CDK19/Cyclin C (Q9BWU1 whole entry): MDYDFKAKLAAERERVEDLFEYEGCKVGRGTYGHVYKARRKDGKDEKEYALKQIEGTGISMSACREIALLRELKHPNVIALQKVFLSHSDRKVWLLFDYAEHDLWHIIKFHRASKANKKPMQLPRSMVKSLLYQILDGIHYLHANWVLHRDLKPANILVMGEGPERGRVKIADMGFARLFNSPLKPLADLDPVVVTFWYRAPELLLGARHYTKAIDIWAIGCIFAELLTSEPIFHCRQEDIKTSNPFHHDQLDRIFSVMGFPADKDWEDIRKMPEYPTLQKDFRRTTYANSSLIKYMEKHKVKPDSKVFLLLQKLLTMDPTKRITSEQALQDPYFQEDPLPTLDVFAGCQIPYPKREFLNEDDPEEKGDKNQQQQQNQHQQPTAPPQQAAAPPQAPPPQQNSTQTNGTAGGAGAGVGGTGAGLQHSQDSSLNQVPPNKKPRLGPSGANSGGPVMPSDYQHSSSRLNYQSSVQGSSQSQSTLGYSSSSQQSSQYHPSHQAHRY
Sequence of CDK19/Cyclin C (P24863 whole entry partner): as the sequence (P24863 whole entry partner) above

IC50 (CDK8/Cyclin C) [nM]	IC50 (Haspin kinase) [nM]	IC50 (CDK19/Cyclin C) [nM]	CDK8 selectivity (CDK8/Cyclin C)	Structure (SMILES)
< 1.41				CCn1c(C(N)=O)cc2c1-c1ccncc1O[C@H]2C1CCOCC1 (single isomer, unassigned) [Example 95]
< 1.41	355			CCn1c(C(N)=O)cc2c1-c1ccncc1O[C@@H]2C1CCOCC1 (single isomer, unassigned) [Example 96]
146	306			CC1(C)Oc2cnccc2-c2[nH]c(C(=O)O)cc21 [Example 2]
92.2	180	322		CNC(=O)c1cc2c([nH]1)-c1ccncc1OC2(C)C [Example 3]
5280	7550			CC1(C)Oc2cnccc2-c2[nH]c(C(=O)Nc3ccccc3)cc21 [Example 4]
1870	18400			CC(C)(C)OC(=O)N1CCC(NC(=O)c2cc3c([nH]2)-c2ccncc2OC3(C)C)CC1 [Example 5]
2410	1780			CC(C)NC(=O)c1cc2c([nH]1)-c1ccncc1OC2(C)C [Example 6]
1490	1020			COCCNC(=O)c1cc2c([nH]1)-c1ccncc1OC2(C)C [Example 7]
340	305			CC1(C)Oc2cnccc2-c2[nH]c(C(=O)NCc3ccccc3)cc21 [Example 8]
979	2350			CCN(CC)C(=O)c1cc2c([nH]1)-c1ccncc1OC2(C)C [Example 9]
3520	1730			CC1(C)Oc2cnccc2-c2[nH]c(C(=O)NC3CCNCC3)cc21 [Example 10]
162	418			CC1(C)Oc2cnccc2-c2[nH]c(C(=O)NCCc3ccccc3)cc21 [Example 11]
412	53.3	550		Cl.NC(=O)c1cc2c([nH]1)-c1ccncc1OC21CCNCC1 [Example 12]
4.18	53.6	8.22		NC(=O)c1cc2c([nH]1)-c1ccncc1OC21CCCCC1 [Example 13]
23.9	1000	3.01		O=C(O)c1cc2c([nH]1)-c1ccncc1OC21CCCCC1 [Example 14]
54.7	206	211		NC(=O)c1cc2c([nH]1)-c1ccncc1OC21CCOCC1 [Example 20]
671	868			CC1(C)Oc2cnccc2-c2[nH]c(C(=O)N3CCOCC3)cc21 [Example 21]
61.1	648	233		Cn1c(C(=O)O)cc2c1-c1ccncc1OC2(C)C [Example 23]
10000	20400			CC1(C)Oc2cnccc2-c2c1cc(C(=O)O)n2Cc1ccccc1 [Example 24]
5870	22300			CC(C)n1c(C(N)=O)cc2c1-c1ccncc1OC2(C)C [Example 25]
5940	49000			CC(C)n1c(C(=O)O)cc2c1-c1ccncc1OC2(C)C [Example 26]
10000	49900			COCCn1c(C(=O)O)cc2c1-c1ccncc1OC2(C)C [Example 27]
9.32	26.6	16.6		CC1(C)Oc2cnccc2-c2[nH]c(C(N)=O)c(Cl)c21 [Example 28]
52.5	89.3	205		CC1(C)Oc2cnccc2-c2[nH]c(C(=O)O)c(Br)c21 [Example 29]
8.94	2740	20.7	high CDK8 selectivity	CC1(C)Oc2cnccc2-c2[nH]c(C(=O)O)c(-c3ccc(S(N)(=O)=O)cc3)c21 [Example 30]
29.7	73.2	107		CC1(C)Oc2cnccc2-c2[nH]c(C(N)=O)c(-c3ccccc3)c21 [Example 31]
26.2	235	81.3		CC1(C)Oc2cnccc2-c2[nH]c(C(N)=O)c(-c3ccc(S(N)(=O)=O)cc3)c21 [Example 32]
12.3	90.6	29.5		C=Cc1c(C(N)=O)[nH]c2c1C(C)(C)Oc1cnccc1-2 [Example 33]

IC50 (CDK8/Cyclin C) [nM]	IC50 (Haspin kinase) [nM]	IC50 (CDK19/Cyclin C) [nM]	CDK8 selectivity (CDK8/Cyclin C)	Structure (SMILES)
13.3	151	31.4		CC1(C)Oc2cncc(Cl)c2-c2[nH]c(C(=O)O)cc21 [Example 35]
559	292			CC1(C)Oc2c(ccnc2Cl)-c2[nH]c(C(N)=O)cc21 [Example 36]
6290	1650			CC1(C)Oc2c(ccnc2Cl)-c2[nH]c(C(=O)O)cc21 [Example 37]
461	6830			CC1(C)Oc2cnc(Cl)cc2-c2[nH]c(C(N)=O)cc21 [Example 38]
206	2330			CC1(C)Oc2cncc(-c3ccccc3)c2-c2[nH]c(C(N)=O)cc21 [Example 39]
269	254			CC1(C)Oc2cnccc2-c2[nH]c(C(N)=O)c(-c3cccc(S(N)(=O)=O)c3)c21 [Example 40]
55.5	1310	158		Cn1c(C(N)=O)cc2c1-c1c(Cl)cncc1OC2(C)C [Example 41]
312	6730			CCn1c(C(=O)O)cc2c1-c1ccncc1OC2(C)C [Example 44]
315	5700			CC1(C2(C)Oc3cnccc3-c3[nH]c(C(N)=O)cc32)COC1 (stereo not drawn) [Example 49]
581	782			CC1(C)Oc2cnccc2-c2[nH]c(C(N)=O)c(-c3ccc(F)cc3)c21 [Example 50]
31.9	321	171		COc1ccc(-c2c(C(N)=O)[nH]c3c2C(C)(C)Oc2cnccc2-3)cc1 [Example 51]
21.6	186	19.4		CC1(C)Oc2cnccc2-c2c1cc(C(N)=O)n2CC(F)(F)F [Example 53]
31.1	52.9	97.1		CC(C)C1(C)Oc2cnccc2-c2[nH]c(C(N)=O)cc21 (stereo not drawn) [Example 54]
112	656			CC1(C)Oc2cnccc2-c2[nH]c(C(N)=O)c(-c3ccccc3O)c21 [Example 64]
0.191		1.41		CCn1c(C(N)=O)cc2c1-c1ccncc1OC21CCC1 [Example 66]
211	743			CC1(C)Oc2cnccc2-c2[nH]c(C(N)=O)c(-c3ccccc3C(F)(F)F)c21 [Example 74]
7.48	188			CC(=O)N1CCC2(CC1)Oc1cnccc1-c1[nH]c(C(N)=O)cc12 [Example 77]
484	33300			COc1ccccc1-c1c2c(n(CCF)c1C(=O)NCCF)-c1ccncc1OC2(C)C [Example 78]
127	260			COc1cccc(-c2c(C(N)=O)[nH]c3c2C(C)(C)Oc2cnccc2-3)c1 [Example 85]
< 1.41	25.6			NC(=O)c1cc2c(n1CCF)-c1ccncc1OC21CCOCC1 [Example 92]
2.65	17.5			CCn1c(C(N)=O)c(C2CC2)c2c1-c1ccncc1OC2(C)C [Example 94]
2.41	8.91			CCn1c(C(N)=O)c(Cl)c2c1-c1ccncc1OC21CCOCC1 [Example 104]
< 1.41	8.82			CCn1c(C(N)=O)c(Cl)c2c1-c1ccncc1OC21CCCCC1 [Example 105]
2000				COC(=O)c1[nH]c2c(c1-c1ccccc1)C(C)(C)Oc1cnccc1-2 [LXIX]
780				COC(=O)c1[nH]c2c(c1Br)C(C)(C)Oc1cnccc1-2 [LXVIII]
2850				COC(=O)c1[nH]c2c(c1-c1ccc(S(N)(=O)=O)cc1)C(C)(C)Oc1cnccc1-2 [LXX]
677				COC(=O)c1cc2c([nH]1)-c1ccncc1OC2(C)C [VIII]

Structure (SMILES)	IC50 (CDK8/Cyclin C) [nM]	IC50 (Haspin kinase) [nM]	IC50 (CDK19/Cyclin C) [nM]	CDK8 selectivity (CDK8/Cyclin C)
NC(=O)c1cc2c([nH]1)-c1ccncc1OC21CCN(C2CC2)CC1 [Example 16]	5700	4280		
O=C(O)c1cc2c([nH]1)-c1ccncc1OC21CCN(C2CC2)CC1 [Example 17]	1530	5960		
O=C(O)c1cc2c([nH]1)-c1ccncc1OC21CCN(CC(F)(F)F)CC1 [Example 19]	652	2950		
CCN1CCC2(CC1)Oc1cnccc1-c1[nH]c(C(N)=O)cc12 [Example 42]	197	153		
NC(=O)c1cc2c([nH]1)-c1ccncc1OC21CCN(CCC(F)(F)F)CC1 [Example 47]	120	466		
NC(=O)c1cc2c([nH]1)-c1ccncc1OC21CCN(CCCC(F)(F)F)CC1 [Example 48]	886	470		
